How the values were obtained:
[1] = Carboplatin one-compartment plasma PK model in mice; format: in vivo, beige SCID mice
Protocol: The PK of carboplatin in mice was assessed using a one-compartment model with bolus intravenous injection.
e) Supplements of the PK-model development.

nuclear DNA = test: Platinum adducts by ICP-MS in PBMCs from patients (carboplatin + talazoparib phase 1); format: in vivo
Protocol: Carboplatin and platinum adducts were determined in a limited number of blood samples from a previously presented phase 1 clinical trial (NCT02358200). […] In the case of grade 3 or grade 4 toxicity, carboplatin and/or talazoparib doses were held until below grade 1 and resumed at a lower dose level. Blood samples were obtained from a limited number of patients during cycle 1 day 1 (prior to talazoparib dosing) and cycle 2 day 1 pre-dose and up to 24 h post dose, and PBMCs were derived at day 15 post dose, DNA was extracted as described in Additional file 1d and platinum adducts were quantified by ICP-MS (Additional file 1b).
The platinum adduct formation in PBMCs in 19 patients was linked to carboplatin concentrations in plasma using the Eq 1. […] In this model, we tested the hypothesis that PARPi interact with platinum formation. […] The formation of adducts correlated with the number of lymphocytes (P < 0.0001) and the gBRCA mutation status (P < 0.0001). […]
b). Technical aspects of the ICP-MS method development.
PBMCs were extracted from whole blood using by centrifugation. Lysis of red blood cells was performed as needed, then PMBCs were washed and resuspended in A limited number of 5-15 mL heparinised or EDTA whole blood samples from the PK study talazoparib/carboplatin phase 1 study were included. Following centrifugation for 15 min at 1,000 g, plasma was extracted and the PBS was added to a total volume of 9.5 ml to the remaing fraction. PMBCS were extracted using density-gradient centrifugation with Ficoll-Paque Plus® (Pharmacia, Uppsala, Sweden) at room temperature for 20 min at 400 g. PBMCs were washed twice with ice-cold PBS and centrifuged at 800 G for 5 minustes at 4 °C. Cells were counted and ther resuspended in 1 mL buffer containing 10 mmol L−1 Tris- HCl, 2.3% (w/v) NaCl, and 2 mmol L−1 EDTA disodium salt at pH 7.3.
DNA extraction procedure:
The DNA extraction was based on previous publications. 4 In short, 44 μL 1 mol L −1 NH4HCO3, 20 μL 20% (w/v) SDS, and 6 μL 1% (w/v) proteinase K solution were added successively, and incubated for 24hours using a thermomixer. After the digestion was complete, 146 μL saturated 6 mol L−1 NaCl was added to each tube and the tubes were shaken vigorously to precipitate proteins. The tubes were centrifuged for 10min at 2000 g and the supernatant containing the DNA was transferred to another tube. Subsequently, the supernatant was shaken, centrifuged, and transferred to another tube. Following this, 1.5ml absolute ethanol was added to precipitate the DNA and centrifuged from 30 minutes at 21 Kg at 4°C. The DNA was washed twice with 75% ethanol and was subsequently dissolved in 30 μL water. DNA concentrations were analyzed by measuring the absorbance at 260 nm using Nanodrop 1000 spectophotometer (NanoDrop).
Carboplatin adduct quantification:
The quantity of the carboplatin-adducts per mg DNA was quantified (Figure S8) using a previously validated […]
Figure S8: Example graph of mass spectrum of platinum in DNA extraction by ICP-MS.
(1 picture or pasted object on this page, not shown here)
Supplementary Table 2: PK patients estimates carboplatin and platinum adducts Structural model PK Estimat RS
Inter-individual variability on Platinum adduct formation (RPT) 317% proportional residual error plasma carboplatin 28% 26 […]
proportional residual error adduct formation 110% 6%
Platinum adduct formation:
CL=clearance, V=volume of distribution, KA= rate of absorption, RPT= ratio of carboplatin adduct formation, KPT= rate of carboplatin adduct formation, gBRCA = germline BRCA carrier […]
(also on this page, place not known: ( )adductsC−×× plasmaCRPT KPT=dt dCadducts)

MDA-MB-436 = conditions: MDA-MB-436, BRCA1-mutated; ref [23], [25]; cited from earlier work
[2] = design: method as in PMID 19364967; conditions: ref [46]; cited from earlier work

SMILES	Clearance and volume of distribution of carboplatin with co-dosed veliparib (drug-drug interaction) ([1]; 0, 20 or 60 mg/kg veliparib doses)	Half-life (t1/2) ([1]; beige SCID mice plasma) [min]	CL ([1]; mice plasma) [mL/h]	Interindividual variability on CL ([1]; mice plasma) [%]	Vd ([1]; mice plasma) [mL]	RPT, ratio of adducts compared to plasma concentration (nuclear DNA; 19 patients) [%]	Median conc. (RSE %), carboplatin adducts (nuclear DNA; PBMCs from patients, ICP-MS)	Ratio of adducts in PBMCs/plasma concentration (nuclear DNA; five gBRCA carriers) [%]	Ratio of adducts in PBMCs/plasma concentration (nuclear DNA; nine non-carriers) [%]	RPT (%) carboplatin adducts, model estimate (nuclear DNA; non-carriers, Supplementary Table 2) [%]	Median platinum adducts (nuclear DNA; patient PBMC samples) [nmol/g DNA]	Time platinum adducts remain detectable post dose (nuclear DNA; patient PBMC samples)	Median platinum adducts, equivalent per blood volume (nuclear DNA; patient PBMC samples, per L blood) [pg/L]	Inter-individual variability on platinum adduct formation (RPT) (nuclear DNA; patients) [%]	Adduct formation, single-agent treatment at day 1 versus combination with talazoparib (nuclear DNA; patients PBMCs)	KPT, formation rate of adducts from plasma (nuclear DNA; patients PBMCs) [L/h]	Sensitivity in vitro (MDA-MB-436)	Renal clearance as share of elimination [2] [%]
N.N.O=C([O-])C1(C(=O)[O-])CCC1.[Pt+2] [carboplatin]	not significantly different	21	34.2	6	17.5	0.5	0.0552 (30%) μmol/g DNA	0.64	0.29	1.20	55.2	up to 15 days	81.4	317	no statistical difference	0.0156	–	–
C[C@]1(c2nc3c(C(N)=O)cccc3[nH]2)CCCN1 [veliparib]	–	–	–	–	–	–	–	–	–	–	–	–	–	–	–	–	sensitivity	70

From PMC5594551, “Heterogeneous drug penetrance of veliparib and carboplatin measured in triple negative breast tumors” (Breast Cancer Research : BCR, 2017)
